Data: US9034398B2, “Traditional Chinese drug comprising Danshen extracts and Sanqi extracts and use thereof” (TASLY Pharmaceutical Group Co., LTD., priority 2009, dated 2015)

Experiments:
[1] = system: rat myocardial I/R model; assay: FITC-labeled plasma albumin leakage from the venules of heart coronary vessels; assay type: in vivo; conditions: 5 mg/kg BW/h intravenous drip, 60 min after reperfusion; for FITC-labeled albumin leakage from the venules of the coronary vessels (images): FIG. 3A; for inhibitory effect on FITC-labeled albumin leakage (ratio of fluorescence intensity outside to inside the venules): FIG. 3B
Experimental: The rats were anesthetized by intramuscularly injecting 20 wt % urethane (1.25 g/kg) and fixed in the supine position. Neck skin was incised and anterior cervical muscles were separated to expose the trachea. Tracheal intubation was performed. Another end of the intubation was attached to a Small Animal Ventilator (ALC-V8, Shanghai Aoteshai Biology Science and Technology Limited Company, Shanghai, China) so as to carry out pressure breathing under the following conditions: a respiratory ratio of 1:1, a respiratory frequency of 75 times/min and a tidal volume of 12 mL/kg. The rectal temperature, measured with YSI REF 401 (Yellow Spring, Ohio, USA), was maintained at 37 37.5° C. by using a thermal blanket. The chest was sterilized and opened at the intercostal space between 2nd 4th ribs near the left and right sternal border to expose the heart. The 3⁄8 curved needle threaded with 3-0 suture was used to pass through the site at 1 2 mm below the juncture of the pulmonary artery cone and the left atrial appendage. The suture was ligated. A polyethylene tubule was placed between the silk suture and myocardial tissue, the silk suture was […] to cause ischemia. Ligature was released 30 min later to establish an I/R model. Danshensu+I/R group (DLA+I/R group): a Danshensu aqueous solution (in normal saline, 1.25 mg/ml) was administrated at a dosage of 5 mg/kg BW/h by intravenous drip 20 min before the experiment and continued until the end of the entire experiment. Notoginsenoside R1+I/R group (R1+I/R group): a Notoginsenoside R1 aqueous solution (in normal saline, 1.25 mg/ml) was administrated at a dosage of 5 mg/kg BW/h by intravenous drip 20 min before the experiment and continued until the end of the entire experiment. Danshensu:R1(4:1)+I/R group (DR(4:1)+I/R group): an aqueous solution of Danshensu and Notoginsenoside R1 at a weight ratio of 4:1, dissolved in normal saline (1.25 mg/ml, namely, in the solution, the concentration of Danshensu is 1 mg/ml and the concentration of Notoginsenoside R1 is 0.25 mg/ml), was administrated at a dosage of 5 mg/kg BW/h (namely, in the total dosage, the dosage of Danshensu is 4 mg/kg BW/h and the dosage of Notoginsenoside R1 is 1 mg/kg BW/h) by intravenous drip 20 min before the experiment and continued until the end of the entire experiment. […] Under an upright fluorescence microscope (USS-301, Leica, US), fluorescence image of each group was recorded with SIT camera by using a light at 455 nm as an exciting light and a mercury lamp (100 W) as an emission source. FITC fluorescence intensities inside the venules and the adjacent extravascular interstitial substance were measured with Image-Pro Plus 5.0 software, respectively. […]

[2] = system: rat myocardial I/R model; assay: Heart blood flow volume by laser Doppler perfusion imaging (LDPI); assay type: in vivo; conditions: for inhibitory effect on the decrease of the heart blood flow volume after I/R / heart blood flow volume regained compared to I/R group (LDPI images): 5 mg/kg BW/h intravenous drip; for inhibitory effect on the decrease of the heart blood flow volume after I/R: FIG. 5A; for heart blood flow volume regained compared to I/R group (LDPI images): at 30 min and 60 min after reperfusion, FIG. 4A
Experimental: The rats were anesthetized by intramuscularly injecting 20 wt % urethane (1.25 g/kg) and fixed in the supine position. Neck skin was incised and anterior cervical muscles were separated to expose the trachea. Tracheal intubation was performed. Another end of the intubation was attached to a Small Animal Ventilator (ALC-V8, Shanghai Aoteshai Biology Science and Technology Limited Company, Shanghai, China) so as to carry out pressure breathing under the following conditions: a respiratory ratio of 1:1, a respiratory frequency of 75 times/min and a tidal volume of 12 mL/kg. The rectal temperature, measured with YSI REF 401 (Yellow Spring, Ohio, USA), was maintained at 37 37.5° C. by using a thermal blanket. The chest was sterilized and opened at the intercostal space between 2nd 4th ribs near the left and right sternal border to expose the heart. The 3⁄8 curved needle threaded with 3-0 suture was used to pass through the site at 1 2 mm below the juncture of the pulmonary artery cone and the left atrial appendage. The suture was ligated. A polyethylene tubule was placed between the silk suture and myocardial tissue, the silk suture was […] to cause ischemia. Ligature was released 30 min later to establish an I/R model. Danshensu+I/R group (DLA+I/R group): a Danshensu aqueous solution (in normal saline, 1.25 mg/ml) was administrated at a dosage of 5 mg/kg BW/h by intravenous drip 20 min before the experiment and continued until the end of the entire experiment. Notoginsenoside R1+I/R group (R1+I/R group): a Notoginsenoside R1 aqueous solution (in normal saline, 1.25 mg/ml) was administrated at a dosage of 5 mg/kg BW/h by intravenous drip 20 min before the experiment and continued until the end of the entire experiment. Danshensu:R1(4:1)+I/R group (DR(4:1)+I/R group): an aqueous solution of Danshensu and Notoginsenoside R1 at a weight ratio of 4:1, dissolved in normal saline (1.25 mg/ml, namely, in the solution, the concentration of Danshensu is 1 mg/ml and the concentration of Notoginsenoside R1 is 0.25 mg/ml), was administrated at a dosage of 5 mg/kg BW/h (namely, in the total dosage, the dosage of Danshensu is 4 mg/kg BW/h and the dosage of Notoginsenoside R1 is 1 mg/kg BW/h) by intravenous drip 20 min before the experiment and continued until the end of the entire experiment. Danshensu:R1 (1:1)+I/R group (DR(1:1)+IR group): an aqueous solution of Danshensu and Notoginsenoside R1 at a weight ratio of 1:1, dissolved in normal saline (1.25 mg/ml, namely, in the solution, the concentration of Danshensu is 0.625 mg/ml and the concentration of Notoginsenoside R1 is 0.625 mg/ml), was administrated at a dosage of 5 mg/kg BW/h (namely, in the total dosage, the dosage of Danshensu is 2.5 mg/kg BW/h and the dosage of Notoginsenoside R1 is 2.5 mg/kg BW/h) by intravenous drip 20 min before the experiment and continued until the end of the entire experiment. […] Blood flow volumes on the surface of heart before ischemia, 5 min, 30 min after ischemia, and 5 min, 30 min, 60 min after reperfusion had been recorded by a computer-aided laser Doppler perfusion imager (LDPI) (PeriScan PIM3, […], Sweden). Images were measured and the data were evaluated with […] software. Change rate of blood flow volume of the heart was calculated by taking the blood flow volume before I/R as a baseline.

Row | Structure (SMILES) | FITC-labeled albumin leakage from the venules of the coronary vessels (images) [1] | inhibitory effect on FITC-labeled albumin leakage (ratio of fluorescence intensity outside to inside the venules) [1] | inhibitory effect on the decrease of the heart blood flow volume after I/R ([2]; at 5 min after reperfusion) | heart blood flow volume regained compared to I/R group (LDPI images) [2] | amelioration of heart perfusion flow caused by I/R (summary) ([2]; rats, summary statement of the description) | inhibitory effect on the decrease of the heart blood flow volume after I/R ([2]; no time stated)
1 | O=C(O)C(O)Cc1ccc(O)c(O)c1 (stereo not drawn) [Danshensu, (3,4-dihydroxyphenyl)lactic acid] | can also be observed | Significant inhibitory effect on FITC-labeled albumin leakage has not been observed | significantly inhibitory effect | regained to some extent | transiently ameliorate | 
2 | CC(C)=CCC[C@](C)(O[C@@H]1O[C@H](CO)[C@@H](O)[C@H](O)[C@H]1O)[C@H]1CC[C@]2(C)[C@@H]1[C@H](O)C[C@@H]1[C@@]3(C)CC[C@H](O)C(C)(C)[C@@H]3[C@@H](O[C@@H]3O[C@H](CO)[C@@H](O)[C@H](O)[C@H]3O[C@@H]3OC[C@@H](O)[C@H](O)[C@H]3O)C[C@]12C [Notoginsenoside R1] | can also be observed | Significant inhibitory effect on FITC-labeled albumin leakage has not been observed |  | regained to some extent |  | has not been observed to have significantly inhibitory effect
